The experiment has as its target T1, Recombinant Human EphA2 Fc Protein (Homo sapiens, UniProt P29317).
T1 construct: purchased Elabscience
As to the kind of experiment: Interaction analysis (kinetics, KD) of peptides and conjugates against EphA2 by SPR, Biacore T200, single-cycle kinetics (Examples B15 and B22). The class given is binding. In a few lines:
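Biacore T200 SPR with Fc-tagged human EphA2 captured via anti-human antibody; running buffer HBS-P+ pH 7.4 with 1% DMSO, 25 °C. Five serial dilutions of peptide or conjugate run by single-cycle kinetics; KD from ka and kd after baseline subtraction.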
For orientation: In SPR one partner is held on a chip, and binding of the other changes the refractive index at the surface.

The mark [1] stands for this setting: conjugates, Biacore T200 according to Example B15, Table B16, read-out: SPR Kd.

In patent publication US20260364215A1, “Radiopharmaceutical Compositions Targeting Ephrin Type-A Receptor 2 and Uses Thereof” (PeptiDream Inc., priority 2022, published 2026) one finds Kd data, which are given here for four compounds.

The structures appear in SMILES notation. Where two headings read alike, the source gives them in different places. Numbered stars: 1 amine (or outer) side, 2 acyl side, 3 side chain; on linkers, the order of the positions; unused ones are H or OH. Bridge positions count the residues as written; N and C are the ends. Square brackets hold non-standard residues; d marks the D form. Side chains are listed from the residue outwards. Peptide text beside a SMILES is read from it. * marks the point of attachment. DOTA(Lu) = O=C1CN2CCN3CCN(CC(=O)*)CCN(CC2)CC(=O)[O][Lu]([O]1)[O]C(=O)C3; DOTA = O=C(O)CN1CCN(CC(=O)O)CCN(CC(=O)*)CCN(CC(=O)O)CC1; Trp(1-Me,7-Cl) = Cn1cc(C[C@H](N)C(=O)O)c2cccc(Cl)c21; dPhe(3-CONH2) = NC(=O)c1cccc(C[C@@H](N)C(=O)O)c1; Piperazinyl(4-CH2COOH) = O=C(O)CN1CCN(*)CC1; Trp(1-Me) = Cn1cc(C[C@H](N)C(=O)O)c2ccccc21; NMe3Pal = CN[C@@H](Cc1cccnc1)C(=O)O; Gly(cBu) = N[C@H](C(=O)O)C1CCC1; NMeE = CN[C@@H](CCC(=O)O)C(=O)O; Aad = N[C@@H](CCCC(=O)O)C(=O)O; CO = O=C([*:1])[*:2]

Usually Kd stands for a measure of binding affinity in units of concentration.

T1 sequence (P29317 24-534 limits assumed): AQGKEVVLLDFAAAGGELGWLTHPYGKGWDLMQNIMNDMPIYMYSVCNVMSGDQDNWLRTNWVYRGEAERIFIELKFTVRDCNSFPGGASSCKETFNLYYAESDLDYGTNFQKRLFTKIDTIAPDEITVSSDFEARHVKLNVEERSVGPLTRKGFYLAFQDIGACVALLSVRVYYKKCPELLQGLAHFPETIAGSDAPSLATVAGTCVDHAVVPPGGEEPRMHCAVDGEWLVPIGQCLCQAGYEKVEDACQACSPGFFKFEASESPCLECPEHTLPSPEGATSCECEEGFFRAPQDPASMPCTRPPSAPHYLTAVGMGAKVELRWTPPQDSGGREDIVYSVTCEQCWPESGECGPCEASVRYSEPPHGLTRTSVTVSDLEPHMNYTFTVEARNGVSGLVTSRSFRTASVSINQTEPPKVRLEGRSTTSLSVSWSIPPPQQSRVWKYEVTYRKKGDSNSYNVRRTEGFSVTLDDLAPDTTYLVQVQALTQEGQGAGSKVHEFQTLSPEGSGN

Take `C[C@@H](O)[C@@H]1NC(=O)[C@H](Cc2cn(C)c3ccccc23)NC(=O)[C@H](CCCCNC(=O)N2CCN(CC(=O)O)CC2)NC(=O)[C@H](Cc2cn(C)c3c(Cl)cccc23)NC(=O)[C@H](CCC(=O)O)N(C)C(=O)[C@H](CCCCNC(=O)CN2CCN(CC(=O)O)CCN(CC(=O)O)CCN(CC(=O)O)CC2)NC(=O)[C@H](C2CCC2)NC(=O)[C@H](CC(N)=O)NC(=O)[C@H](Cc2cccnc2)N(C)C(=O)[C@@H](Cc2cccc(C(N)=O)c2)NC(=O)CSC[C@@H](C(=O)N[C@H](CCC(=O)O)C(N)=O)NC(=O)[C@H](CCCC(N)=O)NC1=O.[Lu+3]` [PDC_EphA2-00027106] ({CH2CO}-[dPhe(3-CONH2)][NMe3Pal]N[Gly(cBu)]K(DOTA)[NMeE][Trp(1-Me,7-Cl)]K([CO-Piperazinyl(4-CH2COOH)])[Trp(1-Me)]T[Aad](NH2)C[dE]-NH2; thioether N-12): under setting [1], the Kd is less than 1 nM.
Same read-out and setting: then `C[C@H]1NC(=O)CSC[C@@H](C(=O)N[C@H](CCC(=O)O)C(N)=O)NC(=O)[C@H](CCCC(N)=O)NC(=O)[C@H]([C@@H](C)O)NC(=O)[C@H](Cc2cn(C)c3ccccc23)NC(=O)[C@H](CCCCNC(=O)N2CCN(CC(=O)O)CC2)NC(=O)[C@H](Cc2cn(C)c3c(Cl)cccc23)NC(=O)[C@H](CCC(=O)O)N(C)C(=O)[C@H](CCCCNC(=O)[C@@H](CCC(=O)O)NC(=O)CN2CCN(CC(=O)O)CCN(CC(=O)O)CCN(CC(=O)O)CC2)NC(=O)[C@H](C2CCC2)NC(=O)[C@H](CC(N)=O)NC(=O)[C@H](Cc2cccnc2)N(C)C1=O.[Lu+3]` [PDC_EphA2-00027126] ({CH2CO}-[dA][NMe3Pal]N[Gly(cBu)]K([dE-DOTA])[NMeE][Trp(1-Me,7-Cl)]K([CO-Piperazinyl(4-CH2COOH)])[Trp(1-Me)]T[Aad](NH2)C[dE]-NH2; thioether N-12), with less than 1 nM.
On to `C[C@H]1NC(=O)CSC[C@@H](C(=O)N[C@H](CCC(=O)O)C(N)=O)NC(=O)[C@H](CCCC(N)=O)NC(=O)[C@H]([C@@H](C)O)NC(=O)[C@H](Cc2cn(C)c3ccccc23)NC(=O)[C@H](CCCCNC(=O)N2CCN(CC(=O)O)CC2)NC(=O)[C@H](Cc2cn(C)c3c(Cl)cccc23)NC(=O)[C@H](CCC(=O)O)N(C)C(=O)[C@H](CCCCNC(=O)[C@@H](Cc2ccccc2)NC(=O)CN2CCN3CCN4CCN(CC2)CC(=O)[O][Lu]([O]C(=O)C3)[O]C(=O)C4)NC(=O)[C@H](C2CCC2)NC(=O)[C@H](CC(N)=O)NC(=O)[C@H](Cc2cccnc2)N(C)C1=O` [PDC_EphA2-00027127] ({CH2CO}-[dA][NMe3Pal]N[Gly(cBu)]K([dF-DOTA(Lu)])[NMeE][Trp(1-Me,7-Cl)]K([CO-Piperazinyl(4-CH2COOH)])[Trp(1-Me)]T[Aad](NH2)C[dE]-NH2; thioether N-12), for which the Kd was less than 1 nM.
The same measure, in the same setting: for `C[C@H]1NC(=O)CSC[C@@H](C(N)=O)NC(=O)[C@H](CCCCNC(=O)[C@@H](CCC(=O)O)NC(=O)CN2CCN3CCN4CCN(CC2)CC(=O)[O][Lu]([O]C(=O)C3)[O]C(=O)C4)NC(=O)[C@H]([C@@H](C)O)NC(=O)[C@H](Cc2cn(C)c3ccccc23)NC(=O)[C@H](CCCCNC(=O)N2CCN(CC(=O)O)CC2)NC(=O)[C@H](Cc2cn(C)c3c(Cl)cccc23)NC(=O)[C@H](CCC(=O)O)N(C)C(=O)[C@H](CCCC(N)=O)NC(=O)[C@H](C2CCC2)NC(=O)[C@H](CC(N)=O)NC(=O)[C@H](Cc2cccnc2)N(C)C1=O` [PDC_EphA2-00027128] ({CH2CO}-[dA][NMe3Pal]N[Gly(cBu)][Aad](NH2)[NMeE][Trp(1-Me,7-Cl)]K([CO-Piperazinyl(4-CH2COOH)])[Trp(1-Me)]TK([dE-DOTA(Lu)])C-NH2; thioether N-12) the value was less than 1 nM.
